Data published in US9872851B2, “Methods of treating portal hypertension” (The Charlotte-Mecklenburg Hospital Authority, priority 2012, dated 2018).

Tests used:
Rev-erbα = test: Western blot of Rev-erbα in HSCs treated with pro- and anti-fibrogenic factors; format: cell-based, rat
Method: FIGS. 2A-B illustrate the regulation of Rev-erbα expression by pro- and anti-fibrogenic factors. […] Cells were harvested for protein and Western blots performed to detect Rev-erbα.
(§1) Primary rat HSCs were isolated by pronase/collagenase perfusion digestion followed by density gradient centrifugation with Optiprep. Media was replaced every other day to replenish Rev-erb modulator SR6452, which was present at a 10 μM concentration. Cells were treated with MDIR mixture (IBMX, dexamethasone, insulin, rosiglitazone), TGFβ, or DMSO (vehicle). Some experiments were performed with the human HSC cell line, LX-2.
FIG. 2B show results from primary HSCs that were treated with pro-fibrogenic factor TGFβ (5 ng/ml) or myosin inhibitors blebbistatin (Bleb) or BDM (2,3-Butanedione monoxime) for 48 hrs. Cells were harvested for protein and Western blots performed to detect Rev-erbα.

primary rat HSCs [1] = test: qRT-PCR gene expression in culture-activated primary rat HSCs; format: cell-based
Method: (§2) A series of experiments were conducted to determine the functional role of Rev-erbα in HSC transdifferentiation. In these experiments, culture-activated primary rat HSCs and human LX-2 cells were used. To determine the effect of Rev-erbα on HSC transdifferentiation and contraction, cells were treated with a specific synthetic modulator, SR6452 (10 μM). mRNA and protein expression were determined by qRT-PCR and Western blot, respectively. Changes in cellular morphology, Rev-erbα expression/localization and αSMA expression were observed by confocal microscopy. Additionally, cell contractility was assessed.
as §1
mRNA expression was normalized to 18S rRNA.
(§3) FIGS. 3A-B illustrates that modulation of Rev-erbα activity can regulate adipogenesis. Primary HSCs were culture-activated for 5 days (A) or 15 days (B). Cells were treated with vehicle (DMSO, open bar), or the Rev-erb modulator SR6452 (10 mM, purple bar) for the days indicated. The medium was changed every 48 hrs. FIG. 3A provides a chart summarizing the amount of PPARγ, SREBP1, and Lep mRNA on day 5.
FIGS. 4A-B illustrate that the Rev-erb modulator SR6452 can suppress/decrease ECM gene expression. Primary rat HSCs were cultured from quiescence (day Q) to day 5 (FIG. 4A) or from day 9 to day 12 (FIG. 4B) and treated with Rev-erb modulator SR6452. qRT-PCR was performed to determine ECM gene expression. DMSO was used as the vehicle control, while SR6452 was used as the Rev-erb modulator.
(§4) FIGS. 5A-D illustrate that Rev-erb modulator SR6452 can regulate myofibroblast marker expression and HSC contraction. Primary rat HSCs were cultured from quiescence (day Q) to day 5 (FIG. 5A) or from day 9 to day 12 (FIG. 5B) and treated with Rev-erb modulator SR6452. qRT-PCR was performed for myofibroblast gene expression. Samples were normalized with 18S rRNA. […] HSCs (day 5) were embedded in a collagen gel and treated as indicated for 48 hrs. Gels were then released from plastic surface and contraction monitored after 72 hrs. Materials used were DMSO (vehicle control), SR6452, Rev-erb modulator; and BDM (2,3-Butanedione monoxime), myosin inhibitor.

primary HSCs [2] = test: Oil Red O staining / adipogenesis of HSCs; format: cell-based, rat
Method: FIGS. 3A-B illustrate how modulation of Rev-erbα activity can regulate adipogenesis. Primary HSCs were culture-activated for 5 days (A) or 15 days (B). Cells were treated with vehicle, DMSO (open bar), or Rev-erb agonist SR6452 ([…], solid bar). FIG. 3A provides a graph summarizing the amount of PPARγ, SREBP1, and Lep mRNA detected after 5 days of culture.
as §1, §3

primary HSCs [3] = test: Immunocytochemistry (αSMA, DAPI) and cellular morphology by confocal microscopy; format: cell-based, rat; conditions: HSCs (day 9) treated 72 hrs
Method: as §2
Prior to transfection, culture-activated HSCs (for varying days of activation) were seeded onto glass coverslips. Cells were fixed with 4% paraformaldehyde and stained with anti-αSMA antibody, a marker of HSC activation. Cells were imaged using a Zeiss confocal microscope. The fluorescence indicates Rev-erbα or αSMA expression.
FIGS. 5A-D illustrate that Rev-erb modulator SR6452 can regulate myofibroblast marker expression and HSC contraction. Primary rat HSCs were cultured from quiescence (day Q) to day 5 (FIG. 5A) or from day 9 to day 12 (FIG. 5B) and treated with Rev-erb modulator SR6452. qRT-PCR was performed for myofibroblast gene expression. Samples were normalized with 18S rRNA. […] Gels were then released from plastic surface and contraction monitored after 72 hrs. […]

primary rat HSCs [4] = test: Cell contraction assay (collagen lattice); format: cell-based; conditions: collagen gel, SR6452
Method: Primary rat HSCs (day 9, 2-5×10^6 cells/ml) were embedded in a collagen lattice per manufacturer's instructions. Cells were treated with synthetic Rev-erbα ligand SR6452. Collagen gel size change was imaged using a BioSpectrum Imaging System.
as §4

cirrhotic rats = test: Hemodynamic measurements in bile duct-ligated (BDL) rats; format: in vivo, rat; conditions: 10 μM/kg femoral vein, one hour
Method: Studies were performed to determine the in vivo efficacy of using SR6452 as a treatment for portal hypertension. Rats underwent bile duct-ligation (˜5 weeks, until ascites developed) to induce fibrosis and thus portal hypertension. Initial hemodynamic measurements were taken prior to addition of the agonist. SR6452 (10 μM/kg body weight) was administered via the femoral vein and measurements taken again one hour after administration. Experiments were performed 5 weeks after male Sprague-Dawley rats underwent bile duct-ligation (BDL), when cirrhosis was fully established and ascites present. SR6452 (10 μM/kg body weight) was administered via the femoral vein and hemodynamic measurements taken one hour after administration. Hemodynamic studies were performed as previously described (J Hepatol 2012 57:1220-1227). Briefly, a laparotomy was performed under anesthesia. A PE-50 catheter was introduced into a small ileocolic vein and advanced to the portal vein for measurement of portal pressure. The left femoral artery and vein were cannulated with PE-50 catheters for measurement of mean arterial pressure, central venous pressure and blood withdrawal. Via the right carotid artery, another PE-50 catheter was advanced into the left ventricle under pulse curve control, for microsphere application. After insertion of all catheters, rats were allowed to stabilize hemodynamically for 30 min. Cardiac output and organ perfusions were measured using the colored microsphere method as described (J Hepatol 2012 57:1220-1227). Briefly, 300,000 systemic (yellow) microspheres (15 μm diameter) were injected in the left ventricle. The mesenteric portal-systemic shunt volume was estimated after injection of 150,000 blue microspheres in an ileocolic vein.

[5] = SR6452 10 μM, day Q to day 5 or day 9 to day 12

| Compound | cytoplasmic Rev-erbα (Rev-erbα; TGFβ 5 ng/ml, 48 hrs) | Rev-erbα protein expression (Rev-erbα; Western blot) | effects on major regulatory and structural genes controlling myofibroblast contraction (primary rat HSCs [1]; [5]) | expression of key extracellular matrix components, including Type I collagen, fibronectin, and tenascin C (primary rat HSCs [1]; [5]) | expression of major adipogenic factors, notably PPARγ and SREBP1 (primary rat HSCs [1]; SR6452 10 μM, mRNA, day 5) | effect on HSC activation (primary rat HSCs [1]; overall conclusion of the in vitro data) | lipid content in activated HSCs (primary HSCs [2]; SR6452 10 μM, primary HSCs) | HSC adipogenesis (primary HSCs [2]; exposure of quiescent HSCs) | morphology of treated primary HSCs (primary HSCs [3]) | HSC contraction (primary rat HSCs [4]) | portal pressure (PP) after SR6452 (cirrhotic rats; mean, p=0.017) [mmHg] | hepatic-portal vascular resistance after SR6452 (cirrhotic rats; mean, p=0.043) [mmHg/min/100 g/ml] | splanchnic vascular resistance after SR6452 (cirrhotic rats; mean, p=0.048) [mmHg/min/100 g/ml] | reduction in hepatic-portal vascular resistance (cirrhotic rats; vs baseline) [%] | reduction in splanchnic vascular resistance (cirrhotic rats; vs baseline) [%] |
| --- | --- | --- | --- | --- | --- | --- | --- | --- | --- | --- | --- | --- | --- | --- | --- |
| TGFβ | stabilized | increased |  |  |  |  |  |  |  |  |  |  |  |  |  |
| CC(C)(C)OC(=O)CN(Cc1ccc(Cl)cc1)Cc1ccc([N+](=O)[O-])s1 [SR6452] |  |  | repressive effects | significantly down-regulated | up-regulated | suppressive effect | increased | promoted | slightly rounded/folded cytoplasm with disoriented actin fibers | impeded | 19.1 | 8.8 | 27.5 | 36 | 13.5 |
